Experiments:
[1] = test system: human cardiomyocytes (Celprogen 36044-15at); assay: LC-ESI-TOF-MS metabolomics of extracellular media of drug-treated human cardiomyocytes (Tables 2A-2C); type: cell-based; conditions: for doxfold: 26uM Doxorubicin; for tamfold: 15uM tamoxifen
Protocol: Data for statistical analysis were extracted from chromatograms using the Agilent Mass Hunter software (Product No. G3297AA, Agilent Technologies, Inc., Santa Clara, Calif.); it will be understood that alternative statistical analysis methods can be used. Masses were binned together if they were within 10 ppm and eluted within a 2 minutes retention time window. A binned mass was considered to be the same molecule across different LC-ESI-TOF-MS analyses (referred to herein as an “exact mass,” which will be understood to be ±10 ppm). Binning of the data is required for statistical analysis and comparison of masses across the entire experiment. If multiple peaks with the same mass at the same retention time within a single sample were detected by Mass Hunter, they were averaged to assist data analysis. Masses lacking a natural isotopic distribution or with an absolute height of less than 1000 were removed from the data prior to analysis. It would be understood that the results from this assay provide relative values that are assessed according to annotated values within 10 ppm to provide an identity for the molecular weight detected. Thus, a mass shift within 10 ppm is considered consistent with determining the identity of a specific cellular metabolite previously annotated due to differences in ionization source and instrumentation, e.g. between different experiments or using different instruments.
As used herein, a mass was considered to be the same across LC/ESI-TOF-MS runs using a simple algorithm that first sorts the data by mass and retention time. […] If a series of measurements fit this definition it was considered to be from the same compound. If either the mass or the retention time varied by more than the limits listed above it was considered to be a different compound and given a new unique designation.
The data from the most reproducible mass features was log base 2 transformed and median centered prior to statistical analysis. […] To test the null hypothesis a one way permutation based t-test assuming a normal approximation of the conditional distribution was used and implement using the Conditional Inference Procedures in a Permutation Test Framework (Coin) library, a contributed package of programming code. Statistics tests were performed without replacement of missing values decrease the degrees of freedom rather than imputing missing values. […] False discovery rates (FDR) were controlled using the Q value estimator (Storey et al., 2003, Proc Natl Acad. Sci., 100:9440-5) and implemented using the qvalue library in R (Dabney et al., 2003, qvalue: Q-value estimation for false discovery rate control. R package version 1.10.0., www.CRAN.R-project.org).
The extracellular media from treated and untreated cells was processed as described in Cezar et al., (2007, Stem Cells Development 16: 869-882, this publication is incorporated by reference), for extraction of low molecular weight molecules (<3 kD) for metabolomics analysis. Extracellular low molecular weight molecule preparations were separated by liquid chromatography followed by electrospray ionization time of flight (LC-ESI-TOF-MS) mass spectrometry for ionization and detection of the full spectra of low molecular weight molecules present in each sample. More specifically, the samples were separated using the ESI_Luna_HILIC—95_t—06OACN—16 min method (HILIC chromatography). Statistical differences were inferred by subsequent bioinformatics and in silico mapping of deisotoped ESI-TOF-MS mass features as described below (also provided in Cezar et al. (2007, id.)).
Briefly, ionization (100 m/z-1500 m/z) was acquired on an Agilent 6520 Accurate-Mass Q-TOF in extended dynamic range and positive mode. Mass features were generated using two independent methods. First MassHunter Qualitative Analysis was used to generate mass features using the Molecular Feature Extraction algorithm (MFE).

human cardiomyocytes = test system: human cardiomyocytes
Protocol: The percentage of cell death, inherently and after drug treatment, was calculated by Trypan Blue staining (FIG. 2).
The doses for each compound were based upon published standards, equivalent to therapeutic circulating levels whenever possible (see Table 1).

[2] = feature cpdID 36, neutral mass 101.1204, RT 0.720145, Triethylamine or Hexylamine
[3] = feature cpdID 8902, neutral mass 276.1256, RT 8.733378, no hit
[4] = feature cpdID 11232, neutral mass 311.1029, RT 7.400847, p-Glucosyloxymandelonitrile or (S)-4-Hydroxymandelonitrile beta-D-glucoside
[5] = feature cpdID 14190, neutral mass 356.253, RT 1.103957, HMDB04239, 13,14-dihydro PGE1 or Prostaglandin F1alpha
[6] = feature cpdID 16504, neutral mass 393.0913, RT 7.25538, no hit
[7] = feature cpdID 16939, neutral mass 400.2796, RT 1.108613, 7-Ketocholesterol
[8] = feature cpdID 17096, neutral mass 403.1776, RT 6.2306, no hit
[9] = feature cpdID 19500, neutral mass 444.3034, RT 1.106333, […]-Dihydroxyvitamin D3-26,23-lactone
[10] = feature cpdID 19704, neutral mass 448.1344, RT 7.184483, no hit
[11] = feature cpdID 21926, neutral mass 488.3323, RT 1.106573, no hit
[12] = feature cpdID 23163, neutral mass 516.1241, RT 7.217222, Formononetin 7-O-glucoside-6″-O-malonate, Isochlorogenic acid b or 13-Dicaffeoylquinic acid
[13] = feature cpdID 24142, neutral mass 538.2779, RT 0.783395, no hit
[14] = feature cpdID 25561, neutral mass 575.2051, RT 7.271724, no hit
[15] = feature cpdID 25601, neutral mass 576.3861, RT 1.10751, 3-Hexaprenyl-4-hydroxy-5-methoxybenzoic acid
[16] = feature cpdID 27363, neutral mass 620.4117, RT 1.108317, no hit
[17] = feature cpdID 28720, neutral mass 661.1924, RT 6.495524, no hit
[18] = feature cpdID 29101, neutral mass 672.1828, RT 6.528464, no hit
[19] = feature cpdID 29227, neutral mass 676.1781, RT 1.298314, no hit
[20] = feature cpdID 31637, neutral mass 744.1091, RT 1.26415, no hit
[21] = feature cpdID 33162, neutral mass 791.2316, RT 6.496594, no hit
[22] = feature cpdID 37905, neutral mass 932.2608, RT 6.542554, no hit
[23] = feature cpdID 37938, neutral mass 933.3726, RT 8.330596, no hit
[24] = feature cpdID 42137, neutral mass 1122.172, RT 1.256606, no hit
[25] = feature cpdID 45209, neutral mass 1300.402, RT 6.501484, no hit
[26] = feature cpdID 45486, neutral mass 1322.385, RT 6.518707, no hit

Q: How did the doxfold [1, 2] turn out when `COc1cccc2c1C(=O)c1c(O)c3c(c(O)c1C2=O)C[C@@](O)(C(=O)CO)C[C@@H]3O[C@H]1C[C@H](N)[C@H](O)[C@H](C)O1` [Doxorubicin] was run?
A: The doxfold was −1.186 fold.

Q: What about the doxfold [1, 3] of the same compound?
A: Its doxfold is 2.438 fold.

Q: What about the doxfold [1, 4] of the same compound?
A: Its doxfold is 5.193 fold.

Q: And the doxfold [1, 5]?
A: Its doxfold is 12.32 fold.

Q: And the doxfold [1, 6]?
A: Its doxfold is 1.09 fold.

Q: And the doxfold [1, 7]?
A: The doxfold was 11.7 fold.

Q: And the doxfold [1, 8]?
A: The doxfold was −2.02 fold.

Q: What about the doxfold [1, 9] of the same compound?
A: The doxfold was 16.24 fold.

Q: What about the doxfold [1, 10] of the same compound?
A: The doxfold was 2.122 fold.

Q: What about the doxfold [1, 11] of the same compound?
A: The doxfold was 7.799 fold.

Q: And the doxfold ([1]; feature cpdID 23129, neutral mass 515.181, RT 10.44297, no hit)?
A: The doxfold was 1.178 fold.

Q: And the doxfold [1, 12]?
A: Its doxfold is 2.198 fold.

Q: And the doxfold [1, 13]?
A: The doxfold was 1.559 fold.

Q: And the doxfold ([1]; feature cpdID 25445, neutral mass 572.1055, RT 7.089848, no hit)?
A: The doxfold was 1.199 fold.

Q: And the doxfold [1, 14]?
A: The doxfold was 2.11 fold.

Q: What about the doxfold [1, 15] of the same compound?
A: The doxfold was 4.776 fold.

Q: And the doxfold [1, 16]?
A: The doxfold was 2.836 fold.

Q: And the doxfold [1, 17]?
A: Its doxfold is 1.096 fold.

Q: What about the doxfold [1, 18] of the same compound?
A: Its doxfold is 2.172 fold.

Q: What about the doxfold ([1]; feature cpdID 29124, neutral mass 672.6836, RT 6.559082, no hit) of the same compound?
A: Its doxfold is 1.282 fold.

Q: And the doxfold [1, 19]?
A: The doxfold was −6.816 fold.

Q: What about the doxfold [1, 20] of the same compound?
A: The doxfold was −1.423 fold.

Q: And the doxfold [1, 21]?
A: The doxfold was 1.817 fold.

Q: And the doxfold [1, 22]?
A: The doxfold was 1.663 fold.

Q: What about the doxfold ([1]; feature cpdID 37922, neutral mass 932.7613, RT 6.562271, no hit) of the same compound?
A: The doxfold was 1.324 fold.

Q: What about the doxfold [1, 23] of the same compound?
A: The doxfold was 1.117 fold.

Q: What about the doxfold ([1]; feature cpdID 40510, neutral mass 1040.322, RT 6.499979, no hit) of the same compound?
A: Its doxfold is 1.351 fold.

Q: And the doxfold [1, 24]?
A: Its doxfold is −3.594 fold.

Q: And the doxfold [1, 25]?
A: The doxfold was 1.838 fold.

Q: And the doxfold [1, 26]?
A: Its doxfold is 1.667 fold.

Q: What about the “cell death (in words)” value (human cardiomyocytes) of the same compound?
A: Its value is “significantly higher cell death”.

Q: Which tamfold [1, 2] does the source give for `CC/C(=C(\c1ccccc1)c1ccc(OCCN(C)C)cc1)c1ccccc1` [Tamoxifen] here?
A: Its tamfold is 1.889 fold.

Q: What about the tamfold [1, 3] of the same compound?
A: Its tamfold is 2.064 fold.

Q: What about the tamfold [1, 4] of the same compound?
A: The tamfold was 1.708 fold.

Q: And the tamfold [1, 5]?
A: Its tamfold is 11.4 fold.

Q: What about the tamfold ([1]; feature cpdID 15112, neutral mass 372.0557, RT […], no hit) of the same compound?
A: Its tamfold is −1.266 fold.

Q: And the tamfold [1, 6]?
A: The tamfold was 1.21 fold.

Q: What about the tamfold [1, 7] of the same compound?
A: The tamfold was 10.16 fold.

Q: What about the tamfold [1, 8] of the same compound?
A: Its tamfold is −1.832 fold.

Q: And the tamfold [1, 9]?
A: The tamfold was 15.8 fold.

Q: What about the tamfold [1, 10] of the same compound?
A: The tamfold was 1.975 fold.

Q: And the tamfold [1, 11]?
A: The tamfold was 7.564 fold.

Q: What about the tamfold [1, 12] of the same compound?
A: Its tamfold is 1.75 fold.

Q: And the tamfold [1, 13]?
A: Its tamfold is 2.706 fold.

Q: What about the tamfold [1, 14] of the same compound?
A: The tamfold was −1.008 fold.

Q: And the tamfold [1, 15]?
A: The tamfold was 5.478 fold.

Q: And the tamfold [1, 16]?
A: Its tamfold is 3.46 fold.

Q: What about the tamfold [1, 17] of the same compound?
A: The tamfold was 1.185 fold.

Q: And the tamfold [1, 18]?
A: Its tamfold is 2.364 fold.

Q: What about the tamfold [1, 19] of the same compound?
A: The tamfold was −1.514 fold.

Q: What about the tamfold [1, 20] of the same compound?
A: Its tamfold is 1.02 fold.

Q: And the tamfold [1, 21]?
A: Its tamfold is 1.968 fold.

Q: What about the tamfold [1, 22] of the same compound?
A: Its tamfold is 1.8 fold.

Q: What about the tamfold [1, 23] of the same compound?
A: Its tamfold is 1.939 fold.

Q: And the tamfold [1, 24]?
A: The tamfold was −1.752 fold.

Q: And the tamfold [1, 25]?
A: Its tamfold is 1.731 fold.

Q: What about the tamfold [1, 26] of the same compound?
A: Its tamfold is 1.765 fold.

Reference: patent US20110081675A1, “Metabolic Biomarkers Of Drug-Induced Cardiotoxicity” (WISCONSIN ALUMNI RESEARCH FOUNDATION, priority 2009, published 2011)
